For experiment [1], the system named is Stat3. Nature of the experiment: Co-immunoprecipitation of Stat3-Flag and Stat3-HA (dimerization) in MDA-MB-435s cells. The following applies: 20 μM, 24 h. The experiment is classed as cell-based. An excerpt:
(A) Untransfected and untreated MDA-MB-435s cells. (B and E) Cells cotransfected with pCMV-Stat3-Flag and pCMV-Stat3-HA plasmids were immunostained with anti-flag IgG-Rhodamine. (B) Untreated cells and (E) STA-21 treated cells. (C and F) Transfected cells were immunostained with anti-HA IgG-FITC. (C) Untreated cells and (F) STA-21 treated cells. (D and G) Transfected cells were co-immunostained with both anti-HA IgG-FITC and anti-flag IgG-Rhodamine. […] (H) MDA-MB-435s cells were cotransfected with pCMV-Stat3-Flag and pCMV-Stat3-HA plasmids and were exposed to 20 μM STA-21 for 24 h, then cell lysates were immunoprecipitated with anti-HA or anti-Flag antibodies. Immunoprecipitates were resolved on 10% SDS-PAGE and then immunoblotted with anti-HA, anti-Flag or anti-Stat3 antibodies.
The effect of STA-21 on Stat3 in vivo dimerization in breast cancer MDA-MB-435s cells was also investigated. After the exposure to 20 μM STA-21 for 24 h, the cells were harvested and the lysates from the cells expressing Stat3-Flag and Stat3-HA tagged proteins were immunoprecipitated with an anti-Flag or anti-HA antibody, respectively. The immunoprecipitated reaction mixtures were resolved on a 10% SDS-PAGE and immunoblotted with an anti-HA, anti-Flag, or anti-Stat3 antibody, respectively.

A further experiment has as its system Stat5. Nature of the experiment: Electrophoretic mobility shift assay, MDA-MB-435s cells. The experiment is classed as biochemical. For orientation: A gel shift assay detects complexes by their altered migration in electrophoresis.
In experiment [2] the test system is Stat3. Nature of the experiment: Stat3-dependent luciferase reporter (pLucTKS3) in MDA-MB-435s cloned cells. Type of experiment: cell-based. The following applies: pLucTKS3, 20 μM, 48 h. On the procedure: (§1) FIGS. 2A-2B show the inhibition of Stat3 dependent luciferase activity in cancer cells by STA-21. (A) The clone from Caov-3 carcinoma cells stably transfected with pLucTKS3 Stat3-dependent luciferase reporter was used for initial Sat3 small molecule inhibitor screening. The cloned cells were treated with 20 μM of STA-21 as well as other small molecule compounds for 48 h, then the cells were harvested for luciferase activity analysis. (B) The clones from MDA-MB-435s cells stably transfected with pLucTKS3 Stat3-dependent luciferase reporter or SV40 luciferase reporter were treated with 20 μM of STA-21 for 48 h. Luciferase activity was measured using a Promega luciferase kit according to the manufacturer's instructions. The results were based on the averages and standard deviations from three separate experiments.
(§2) The 100 selected inhibitors were evaluated using a Stat3 luciferase reporter system. Both MDA-MB-435s breast carcinoma cells and Caov-3 ovarian carcinoma cells express constitutively activated Stat3 (Song et al., Int. J. Oncol. 24:1017 (2004); Song et al., Biochem. Biophys. Res. Commun. 314:143 (2004)). […] The selected clones were exposed to Stat3 inhibitors at a final concentration of 20 μM for 48 h and luciferase activity was measured using a Promega Luciferase kit (Madison, Wis.).
Background: A reporter such as luciferase makes a cellular process visible.

Experiment [3] relates to breast cancer cells that contain constitutively active Stat3. Briefly: Cell viability assays using MTT. The experiment is classed as cell-based. The text has this: (§3) Since STA-21 inhibited Stat3-dependent luciferase and DNA binding activities, it was next examined whether STA-21 inhibited the growth and survival of breast cancer cells with constitutive Stat3 signaling. […] The Stat3 status of the cell lines was confirmed by measurement of phosphorylated Stat3 (FIG. 4A).

A further experiment has as its system MDA-MB-231. Nature of the experiment: Sub-G1 flow cytometry (apoptotic cells), survival. Type of experiment: cell-based. The following applies: MDA-MB-231, constitutively activated Stat3, 20 μM or 30 μM, 48 h. On the procedure: (§4) (A) The phosphorylation of Stat3 at Y-705 in different cell lines. (B) The cell lines were treated with STA-21 at concentrations as indicated for 48 h, and then cells were harvested and analyzed for the Sub-G1 profile that indicated apoptotic cells on a FACScan Flow Cytometer (Becton Dickinson, San Jose, Calif.). The results were based on the averages and standard deviations from three separate experiments.
as §3
On the technique in general: In flow cytometry, cells or beads pass a laser one at a time.

Experiment [4] has as its system human skin fibroblasts (HSF). Nature of the experiment: Sub-G1 flow cytometry (apoptotic cells), survival. The experiment is classed as cell-based. The following applies: no constitutive Stat3 signaling, 20 μM or 30 μM, 48 h. On the procedure:
as §4, §3

A further experiment has as its system MDA-MB-435s. Briefly: Sub-G1 flow cytometry (apoptotic cells), survival. The following applies: constitutively activated Stat3, 20 μM or 30 μM, 48 h. The experiment is classed as cell-based. On the procedure: as §4, §3
In a further experiment the test system is MCF7. Briefly: Sub-G1 flow cytometry (apoptotic cells), survival. Type of experiment: cell-based. The following applies: MCF7, no constitutive Stat3 signaling, 20 μM or 30 μM, 48 h. The method, then:
as §4, §3

For the next experiment, the system named is MDA-MB-453. Nature of the experiment: Sub-G1 flow cytometry (apoptotic cells), survival. The following applies: MDA-MB-453, no constitutive Stat3 signaling, 20 μM or 30 μM, 48 h. The experiment is classed as cell-based. On the procedure:
as §4, §3

The test system of a further experiment is MDA-MB-468. Nature of the experiment: Sub-G1 flow cytometry (apoptotic cells), survival. Type of experiment: cell-based. The following applies: MDA-MB-468, constitutively activated Stat3, 20 μM or 30 μM, 48 h. The method, then:
as §4, §3

Experiment [5] relates to Stat3. Briefly: Electrophoretic mobility shift assay, MDA-MB-435s nuclear extract. The following applies: 30 μM, 30 min. Type of experiment: biochemical. The method, then:
(§5) FIGS. 3A-3B show the inhibition of Stat3 DNA binding activity and Stat3-regulated anti-apoptotic factors by STA-21. (A) MDA-MB-435s cell nuclear extract was incubated with 30 μM STA-21 for 30 min at room temperature, and then incubated with r-^32P-ATP labeled consensus binding sequence for 20 min at room temperature. The reaction mixtures were resolved on 8% polyacrylamide gel. (B) The lysates from MDA-MB-468 cells treated with the indicated concentrations of STA-21 for 48 h were resolved on 10% SDS-PAGE, then immunoblotted with antibodies as indicated.
(§6) It was next examined whether or not STA-21 could reduce Stat3 DNA binding activity using electrophoretic mobility shift assays as reported (Turkson et al., J. Biol. Chem. 276:45443 (2001)). In MDA-MB-435s breast carcinoma cells with constitutive Stat3 signaling, high Stat3 DNA binding activity was observed (FIG. 3A).

The next experiment concerns ERK (P-ERK). Briefly: Western blot of MDA-MB-468 cell lysates. The experiment is classed as cell-based. The following applies: MDA-MB-468 cells, 48 h. The method, then: as §5, §6
Another experiment relates to Bcl-XL. Briefly: Western blot of MDA-MB-468 cell lysates. Type of experiment: cell-based. The following applies: MDA-MB-468 cells, 20 or 30 μM, 48 h. On the procedure:
as §5, §6

For another experiment, the system named is AKT (P-AKT). Briefly: Western blot of MDA-MB-468 cell lysates. Type of experiment: cell-based. The following applies: MDA-MB-468 cells, 48 h. The method, then:
as §5, §6

The next experiment deals with SV40 luciferase reporter. Briefly: SV40 luciferase reporter (control lacking Stat3 binding sites) in MDA-MB-435s clones. Type of experiment: cell-based. The following applies: reporter without Stat3 DNA binding site, 20 μM, 48 h. On the procedure:
as §1, §2

In the next experiment the target is T1, Stat1 (Homo sapiens, UniProt P42224).
T1 construct: MDA-MB-435s cell nuclear extract was incubated with 30 μM STA-21 for 30 min at room temperature; endogenous in cells; host or cells: MDA-MB-435s nuclear extract
T1 sequence (P42224 1-750): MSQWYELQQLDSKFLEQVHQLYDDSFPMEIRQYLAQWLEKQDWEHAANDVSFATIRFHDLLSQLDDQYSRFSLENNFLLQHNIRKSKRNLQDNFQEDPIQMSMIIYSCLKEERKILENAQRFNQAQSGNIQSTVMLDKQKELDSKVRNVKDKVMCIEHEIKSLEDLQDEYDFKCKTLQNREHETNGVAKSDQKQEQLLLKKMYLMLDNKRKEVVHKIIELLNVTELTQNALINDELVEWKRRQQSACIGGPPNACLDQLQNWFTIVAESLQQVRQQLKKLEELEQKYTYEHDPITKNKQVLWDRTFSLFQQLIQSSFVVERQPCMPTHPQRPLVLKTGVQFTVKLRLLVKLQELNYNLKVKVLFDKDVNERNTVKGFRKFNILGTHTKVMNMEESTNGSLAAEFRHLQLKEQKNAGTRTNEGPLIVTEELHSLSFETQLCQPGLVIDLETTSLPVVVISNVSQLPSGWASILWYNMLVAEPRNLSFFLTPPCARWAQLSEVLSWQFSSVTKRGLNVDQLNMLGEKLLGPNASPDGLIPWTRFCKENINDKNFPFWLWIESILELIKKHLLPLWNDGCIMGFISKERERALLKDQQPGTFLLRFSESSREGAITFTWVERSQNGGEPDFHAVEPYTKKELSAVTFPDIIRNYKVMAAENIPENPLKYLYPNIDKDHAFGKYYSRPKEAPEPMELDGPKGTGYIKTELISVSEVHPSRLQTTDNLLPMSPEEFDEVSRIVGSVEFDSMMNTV
Nature of the experiment: Electrophoretic mobility shift assay, MDA-MB-435s cells. Type of experiment: biochemical.

Experiment [6] has as its system Stat3. Briefly: Stat3-dependent luciferase reporter (pLucTKS3) in Caov-3 cloned cells. Type of experiment: cell-based. The following applies: pLucTKS3, 20 μM, 48 h. The method, then:
as §1, §2

Structures are written as SMILES.

With `C[C@@H]1CC(=O)c2c(ccc3c2C(=O)c2cccc(O)c2C3=O)C1` [STA-21], in the experiment on Stat3 [1], the “Stat3 dimerization between Stat3-Flag and Stat3-HA proteins” value is reported as “abrogated Stat3 dimerization”. For the same molecule, in the experiment with Stat5, the “Stat5 DNA binding activity” value is “not Stat1 and Stat5 DNA binding activity”. The luciferase activity entry with Stat3 [2] was “decreased more than five fold”. Further, in experiment [3], the “growth and survival, cell viability (MTT) combined with sub-G1 data” value was “strong potential to inhibit the growth and survival”. Moreover, the “inhibition of survival (accumulation of cells in sub-G1 phase)” value in the experiment with MDA-MB-231, with MDA-MB-435s and in the experiment on MDA-MB-468 was “remarkable inhibitory activity” in each case. Besides, the “inhibition of survival (sub-G1)” value (in experiment [4]; in the experiment with MCF7; with MDA-MB-453) was “minimal inhibitory effect” each time. Further, the “Stat3 DNA binding activity” value with Stat3 [5] is reported as “inhibited Stat3 DNA binding activity”. For the same molecule, in the experiment with ERK (P-ERK), the “phosphorylation of ERK (P-ERK)” value is “did not affect the phosphorylation”. Further, in the experiment with Bcl-XL, the “downstream anti-apoptotic effector Bcl-XL, Western blot” value was “inhibited the downstream anti-apoptotic effector Bcl-XL”. Besides, the “phosphorylation of AKT (P-AKT)” value in the experiment on AKT (P-AKT) is on record as “did not affect the phosphorylation”. Besides, the “luciferase activity, SV40 luciferase reporter” value in the experiment with SV40 luciferase reporter is “did not affect luciferase activity”. For the same molecule, at Stat1, the “Stat1 DNA binding activity” value is “not Stat1 and Stat5 DNA binding activity”. Moreover, the “effect on Stat3 induced luciferase activity” value with Stat3 [6] is given as “remarkable inhibitory effect”.

These data come from patent US20060247318A1, “Small molecule inhibitors of STAT3 and the uses thereof” (priority 2005, published 2006).
